Read-outs that look alike come from different tables or passages of the source. A value given as a limit tells only on which side of the number the result lay.

As a reminder, the DC50 is the concentration giving 50% degradation. As a reminder, the Dmax is the largest share of the target that was removed.

One assay has as its target T1, Helios (Homo sapiens, UniProt Q96SW2+Q9UKS7).
T1 construct: fluorescently labelled antibodies against Helios and Ikaros; endogenous in cells; host or cells: Jurkat cells
The assay can be described thus: Helios Cellular Degradation Assay (flow cytometry, Helios-PE antibody staining, 72 h). The assay is classed as cell-based. To be noted: for Dmax: Jurkat, read-out: Helios Dmax. Put shortly:
(§1)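 Jurkat cells (80,000/well, RPMI+10% FBS) were exposed to compound for 72 h at 37 °C, then fixed, permeabilized and co-stained for 1 h with Ikaros-Alexa488 and Helios-PE antibodies. Intracellular protein levels were read by flow cytometry.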
In general terms: In flow cytometry, cells or beads pass a laser one at a time.

A further assay deals with T2, Ikaros (Homo sapiens, UniProt Q13422).
T2 construct: fluorescently labelled antibodies against Helios and Ikaros; endogenous in cells; host or cells: Jurkat cells
T2 sequence (Q96SW2 whole entry partner): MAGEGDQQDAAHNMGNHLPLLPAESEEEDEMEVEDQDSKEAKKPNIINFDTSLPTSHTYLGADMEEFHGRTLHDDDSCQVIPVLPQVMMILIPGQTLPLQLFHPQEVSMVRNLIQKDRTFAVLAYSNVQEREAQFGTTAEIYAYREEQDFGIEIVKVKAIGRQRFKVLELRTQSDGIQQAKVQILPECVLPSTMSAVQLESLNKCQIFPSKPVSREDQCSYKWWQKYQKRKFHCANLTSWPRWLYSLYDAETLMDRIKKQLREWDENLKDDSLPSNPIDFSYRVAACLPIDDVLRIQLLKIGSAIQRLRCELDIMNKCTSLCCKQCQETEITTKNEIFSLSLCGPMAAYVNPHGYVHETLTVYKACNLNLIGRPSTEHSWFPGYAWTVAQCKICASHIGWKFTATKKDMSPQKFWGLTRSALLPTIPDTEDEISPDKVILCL
T2 sequence (Q16531 whole entry partner): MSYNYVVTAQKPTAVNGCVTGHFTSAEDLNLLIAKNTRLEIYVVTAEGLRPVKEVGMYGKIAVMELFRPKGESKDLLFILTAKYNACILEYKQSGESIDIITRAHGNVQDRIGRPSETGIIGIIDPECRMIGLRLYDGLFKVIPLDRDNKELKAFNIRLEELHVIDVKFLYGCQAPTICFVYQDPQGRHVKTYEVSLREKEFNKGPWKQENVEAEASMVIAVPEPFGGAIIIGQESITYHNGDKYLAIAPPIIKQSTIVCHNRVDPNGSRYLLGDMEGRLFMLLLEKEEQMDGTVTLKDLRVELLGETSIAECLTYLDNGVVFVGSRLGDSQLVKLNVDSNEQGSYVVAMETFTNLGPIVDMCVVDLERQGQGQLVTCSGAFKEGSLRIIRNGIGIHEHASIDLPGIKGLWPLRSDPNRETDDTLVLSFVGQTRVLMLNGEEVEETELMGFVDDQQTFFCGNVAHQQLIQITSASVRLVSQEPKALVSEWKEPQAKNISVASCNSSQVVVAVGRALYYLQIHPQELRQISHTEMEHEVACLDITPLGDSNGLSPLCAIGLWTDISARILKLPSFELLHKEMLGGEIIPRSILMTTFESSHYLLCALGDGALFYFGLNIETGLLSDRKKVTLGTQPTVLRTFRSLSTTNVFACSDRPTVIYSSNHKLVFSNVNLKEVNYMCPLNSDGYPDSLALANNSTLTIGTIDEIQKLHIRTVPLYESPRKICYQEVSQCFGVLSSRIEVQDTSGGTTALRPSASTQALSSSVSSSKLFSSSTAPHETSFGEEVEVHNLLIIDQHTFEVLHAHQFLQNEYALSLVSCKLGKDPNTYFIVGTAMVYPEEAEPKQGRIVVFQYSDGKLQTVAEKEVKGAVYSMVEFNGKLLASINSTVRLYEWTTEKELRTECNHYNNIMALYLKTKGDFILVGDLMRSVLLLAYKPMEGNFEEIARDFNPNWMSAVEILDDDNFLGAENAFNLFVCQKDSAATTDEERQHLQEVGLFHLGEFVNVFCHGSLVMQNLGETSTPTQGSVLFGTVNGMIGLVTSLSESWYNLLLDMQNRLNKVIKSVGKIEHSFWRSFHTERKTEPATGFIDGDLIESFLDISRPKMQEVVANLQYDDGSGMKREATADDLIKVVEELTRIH
T2 sequence (Q13422 whole entry): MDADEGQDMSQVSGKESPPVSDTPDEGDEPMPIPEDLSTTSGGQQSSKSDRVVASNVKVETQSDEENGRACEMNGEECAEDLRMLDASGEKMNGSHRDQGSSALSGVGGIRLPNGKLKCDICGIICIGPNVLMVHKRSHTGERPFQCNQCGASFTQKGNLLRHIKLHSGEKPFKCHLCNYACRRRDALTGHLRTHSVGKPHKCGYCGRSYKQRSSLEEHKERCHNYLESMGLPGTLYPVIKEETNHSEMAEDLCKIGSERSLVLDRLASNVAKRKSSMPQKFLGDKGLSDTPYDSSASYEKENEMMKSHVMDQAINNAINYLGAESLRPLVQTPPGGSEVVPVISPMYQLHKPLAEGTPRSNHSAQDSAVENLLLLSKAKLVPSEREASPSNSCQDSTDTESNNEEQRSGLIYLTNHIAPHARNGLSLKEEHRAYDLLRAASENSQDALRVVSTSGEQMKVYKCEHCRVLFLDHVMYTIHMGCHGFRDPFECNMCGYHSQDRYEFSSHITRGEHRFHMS
Briefly: Helios Cellular Degradation Assay, Ikaros readout (flow cytometry, Ikaros-Alexa488 antibody staining, 72 h). The class given is cell-based. As to conditions: for Dmax: Jurkat, read-out: Ikaros Dmax. Put shortly: as §1

Setting [1] is: Jurkat cells, 72 h incubation, flow cytometry.

T1 sequence (Q9UKS7 whole entry): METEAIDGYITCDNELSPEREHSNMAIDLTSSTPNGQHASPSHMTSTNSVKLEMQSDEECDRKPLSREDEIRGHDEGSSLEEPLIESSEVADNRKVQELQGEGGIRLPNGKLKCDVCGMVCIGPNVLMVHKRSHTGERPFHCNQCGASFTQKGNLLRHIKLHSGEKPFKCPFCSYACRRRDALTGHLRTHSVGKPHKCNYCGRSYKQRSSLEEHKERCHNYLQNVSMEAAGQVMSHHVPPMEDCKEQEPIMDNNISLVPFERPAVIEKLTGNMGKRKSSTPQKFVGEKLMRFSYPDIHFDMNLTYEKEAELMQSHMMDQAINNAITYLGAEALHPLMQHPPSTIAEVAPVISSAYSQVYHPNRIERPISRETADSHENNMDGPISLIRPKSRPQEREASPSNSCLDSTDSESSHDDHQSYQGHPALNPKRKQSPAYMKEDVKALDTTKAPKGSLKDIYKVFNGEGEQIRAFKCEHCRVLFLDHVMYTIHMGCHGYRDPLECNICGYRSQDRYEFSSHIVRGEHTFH
T1 sequence (Q96SW2 whole entry): as the sequence (Q96SW2 whole entry partner) above
T1 sequence (Q16531 whole entry partner): as the sequence (Q16531 whole entry partner) above

Consider `O=C1CCC(N2Cc3cc(-c4cc(CNCC5CCO5)ccn4)ccc3C2=O)C(=O)N1` (centres unmarked) [Example 129, 3-(5-(4-(((oxetan-2-ylmethyl)amino)methyl)pyridin-2-yl)-1-oxoisoindolin-2-yl)piperidine-2,6-dione], for which, on Helios (setting [1]), the DC50 worked out at 232 nM and the Dmax is 74%. Moreover, at Ikaros (setting [1]), the DC50 is greater than 10000 nM and the Dmax stood at 2%.
On to `CC(C)OC1CN(Cc2ccnc(-c3ccc4c(c3)CN(C3CCC(=O)NC3=O)C4=O)c2)C1` (centres unmarked) [Example 130, 3-(5-(4-((3-isopropoxyazetidin-1-yl)methyl)pyridin-2-yl)-1-oxoisoindolin-2-yl)piperidine-2,6-dione], for which, on Helios (setting [1]), it took 244 nM to reach half-maximal degradation (DC50) and the Dmax was 56%. Besides, on Ikaros (setting [1]), the DC50 is greater than 10000 nM and the maximal degradation (Dmax) came to 13%.
The matching figures for `O=C1CCC(N2Cc3cc(-c4cc(CN[C@H](CCO)c5ccccc5)ccn4)ccc3C2=O)C(=O)N1` (stereo partly drawn) [Example 131, 3-(5-(4-((((R)-3-hydroxy-1-phenylpropyl)amino)methyl)pyridin-2-yl)-1-oxoisoindolin-2-yl)piperidine-2,6-dione]: 14 nM, 83%, greater than 10000 nM and 9%.
The matching figures for `Cc1ccc(S(=O)(=O)C2CCN(Cc3ccnc(-c4ccc5c(c4)CN(C4CCC(=O)NC4=O)C5=O)c3)CC2)cc1` (centres unmarked) [Example 132, 3-(1-oxo-5-(4-((4-tosylpiperidin-1-yl)methyl)pyridin-2-yl)isoindolin-2-yl)piperidine-2,6-dione]: greater than 10000 nM, 28%, greater than 10000 nM and 13%.
As to `O=C1CCC(N2Cc3cc(-c4cc(CN5CCC[C@H]5c5ccccc5)ccn4)ccc3C2=O)C(=O)N1` (stereo partly drawn) [Example 133, 3-(1-oxo-5-(4-(((S)-2-phenylpyrrolidin-1-yl)methyl)pyridin-2-yl)isoindolin-2-yl)piperidine-2,6-dione], the DC50 is 75 nM on Helios (setting [1]) and greater than 10000 nM at Ikaros (setting [1]). Moreover, the Dmax on Helios (setting [1]) was 84%; at Ikaros (setting [1]), 7%.
The matching figures for `O=C1CCC(N2Cc3cc(-c4cc(CN5CCC[C@@H]5c5ccccc5)ccn4)ccc3C2=O)C(=O)N1` (stereo partly drawn) [Example 134, 3-(1-oxo-5-(4-(((R)-2-phenylpyrrolidin-1-yl)methyl)pyridin-2-yl)isoindolin-2-yl)piperidine-2,6-dione]: 16 nM, greater than 10000 nM, 95% and 19%.
As for `O=C1CCC(N2Cc3cc(-c4cc(CN5CCC[C@@H](c6ccccc6)C5)ccn4)ccc3C2=O)C(=O)N1` (stereo partly drawn) [Example 135, 3-(1-oxo-5-(4-(((S)-3-phenylpiperidin-1-yl)methyl)pyridin-2-yl)isoindolin-2-yl)piperidine-2,6-dione], the DC50 on Helios (setting [1]) is 1310 nM; at Ikaros (setting [1]), greater than 10000 nM. In addition, the Dmax at Helios (setting [1]) amounted to 60%; on Ikaros (setting [1]), 4%.
The matching figures for `C[C@@H](c1ccccc1)N(C)Cc1ccnc(-c2ccc3c(c2)CN(C2CCC(=O)NC2=O)C3=O)c1` (stereo partly drawn) [Example 136, 3-(5-(4-((methyl((S)-1-phenylethyl)amino)methyl)pyridin-2-yl)-1-oxoisoindolin-2-yl)piperidine-2,6-dione]: 84 nM, greater than 10000 nM, 62% and 0%.
In the case of `C[C@H](c1ccccc1)N(C)Cc1ccnc(-c2ccc3c(c2)CN(C2CCC(=O)NC2=O)C3=O)c1` (stereo partly drawn) [Example 137, 3-(5-(4-((methyl((R)-1-phenylethyl)amino)methyl)pyridin-2-yl)-1-oxoisoindolin-2-yl)piperidine-2,6-dione], on Helios (setting [1]), the DC50 stood at 98 nM and the Dmax was found to be 67%. In addition, at Ikaros (setting [1]), the DC50 is greater than 10000 nM and the Dmax stood at 8%.
As to `O=C1CCC(N2Cc3cc(-c4cc(CN5CC[C@H](c6ccccc6)C5)ccn4)ccc3C2=O)C(=O)N1` (stereo partly drawn) [Example 138, 3-(1-oxo-5-(4-(((R)-3-phenylpyrrolidin-1-yl)methyl)pyridin-2-yl)isoindolin-2-yl)piperidine-2,6-dione], on Helios (setting [1]), it took 37 nM to reach half-maximal degradation (DC50) and the Dmax came out at 82%. Moreover, on Ikaros (setting [1]), the DC50 was greater than 10000 nM and the Dmax was 18%.
Consider `O=C1CCC(N2Cc3cc(-c4cc(CN5CC[C@@H](c6ccccc6)C5)ccn4)ccc3C2=O)C(=O)N1` (stereo partly drawn) [Example 139, 3-(1-oxo-5-(4-(((S)-3-phenylpyrrolidin-1-yl)methyl)pyridin-2-yl)isoindolin-2-yl)piperidine-2,6-dione], for which the DC50 on Helios (setting [1]) is 25 nM; at Ikaros (setting [1]) it was greater than 10000 nM. Besides, the Dmax on Helios (setting [1]) was determined as 91%; on Ikaros (setting [1]) it was 3%.
Taken in the same sequence, the figures for `CN[C@@H]1CCCC[C@H]1N(C)Cc1ccnc(-c2ccc3c(c2)CN(C2CCC(=O)NC2=O)C3=O)c1` (stereo partly drawn) [Example 140, 3-(5-(4-((methyl((1R,2R)-2-(methylamino)cyclohexyl)amino)methyl)pyridin-2-yl)-1-oxoisoindolin-2-yl)piperidine-2,6-dione] were 12 nM, greater than 10000 nM, 76% and 22%.
The matching figures for `O=C1CCC(N2Cc3cc(-c4cc(CN5CCC(c6ccccc6)CC5)ccn4)ccc3C2=O)C(=O)N1` (centres unmarked) [Example 141, 3-(1-oxo-5-(4-((4-phenylpiperidin-1-yl)methyl)pyridin-2-yl)isoindolin-2-yl)piperidine-2,6-dione]: 46 nM, greater than 10000 nM, 82% and 20%.
The matching figures for `CN(Cc1ccnc(-c2ccc3c(c2)CN(C2CCC(=O)NC2=O)C3=O)c1)C(C)(C)c1ccccc1` (centres unmarked) [Example 142, 3-(5-(4-((methyl(2-phenylpropan-2-yl)amino)methyl)pyridin-2-yl)-1-oxoisoindolin-2-yl)piperidine-2,6-dione]: 88 nM, 897 nM, 83% and 52%.
In the case of `O=C1CCC(N2Cc3cc(-c4cc(CN5CCCC(c6ccccc6)C5)ccn4)ccc3C2=O)C(=O)N1` (centres unmarked) [Example 143, 3-(1-oxo-5-(4-((3-phenylpiperidin-1-yl)methyl)pyridin-2-yl)isoindolin-2-yl)piperidine-2,6-dione], on Helios (setting [1]), the 50% degradation concentration (DC50) came to 40 nM and the Dmax came to 62%. At Ikaros (setting [1]), the DC50 was greater than 10000 nM and the Dmax was determined as 1%.
Consider `NCc1ccnc(-c2ccc3c(c2)CN(C2CCC(=O)NC2=O)C3=O)c1` (centres unmarked) [Example 144, 3-{5-[4-(Aminomethyl)pyridin-2-yl]-1-oxo-2,3-dihydro-1H-isoindol-2-yl}piperidine-2,6-dione], for which, at Helios (setting [1]), half-maximal degradation (DC50) was put at 2020 nM and the Dmax is 57%. Besides, at Ikaros (setting [1]), the DC50 was greater than 10000 nM and the Dmax stood at 11%.
Taken in the same sequence, the figures for `CNCc1ccnc(-c2ccc3c(c2)CN(C2CCC(=O)NC2=O)C3=O)c1` (centres unmarked) [Example 145, 3-(5-{4-[(Methylamino)methyl]pyridin-2-yl}-1-oxo-2,3-dihydro-1H-isoindol-2-yl) piperidine-2,6-dione] were 67 nM, 93%, greater than 10000 nM and 11%.
The matching figures for `CN(Cc1ccc(S(=O)(=O)N(C)C)cc1)Cc1ccnc(-c2ccc3c(c2)CN(C2CCC(=O)NC2=O)C3=O)c1` (centres unmarked) [Example 146, 4-{[({2-[2-(2,6-Dioxopiperidin-3-yl)-1-oxo-2,3-dihydro-1H-isoindol-5-yl]pyridin-4-yl}methyl)(methyl)amino]methyl}-N,N-dimethylbenzene-1-sulfonamide]: greater than 10000 nM, 3%, greater than 10000 nM and 5%.
`CN(Cc1ccc(F)cc1)Cc1ccnc(-c2ccc3c(c2)CN(C2CCC(=O)NC2=O)C3=O)c1` (centres unmarked) [Example 147, 3-(5-(4-(((4-fluorobenzyl)(methyl)amino)methyl)pyridin-2-yl)-1-oxoisoindolin-2-yl)piperidine-2,6-dione]: at Helios (setting [1]), the DC50 amounted to 226 nM and the Dmax was 74%. In addition, at Ikaros (setting [1]), the DC50 is greater than 10000 nM and the Dmax is 4%.
With `CN(Cc1cccc(C(F)(F)F)c1)Cc1ccnc(-c2ccc3c(c2)CN(C2CCC(=O)NC2=O)C3=O)c1` (centres unmarked) [Example 148, 3-(5-(4-((methyl(3-(trifluoromethyl)benzyl)amino)methyl)pyridin-2-yl)-1-oxoisoindolin-2-yl)piperidine-2,6-dione], the DC50 at Helios (setting [1]) was 238 nM; on Ikaros (setting [1]), greater than 10000 nM. Besides, the figures for the Dmax on Helios and at Ikaros were 75% and 9%, respectively.
Regarding `CN(Cc1ccc(C(F)(F)F)cc1)Cc1ccnc(-c2ccc3c(c2)CN(C2CCC(=O)NC2=O)C3=O)c1` (centres unmarked) [Example 149, 3-(5-(4-((methyl(4-(trifluoromethyl)benzyl)amino)methyl)pyridin-2-yl)-1-oxoisoindolin-2-yl)piperidine-2,6-dione], on Helios (setting [1]), the DC50 is greater than 10000 nM and the Dmax worked out at 17%. On Ikaros (setting [1]), the DC50 was greater than 10000 nM and the Dmax is 6%.
Take `CN(Cc1ccc(C#N)cc1)Cc1ccnc(-c2ccc3c(c2)CN(C2CCC(=O)NC2=O)C3=O)c1` (centres unmarked) [Example 150, 4-((((2-(2-(2,6-dioxopiperidin-3-yl)-1-oxoisoindolin-5-yl)pyridin-4-yl)methyl)(methyl)amino)methyl)benzonitrile]: the DC50 on Helios (setting [1]) and on Ikaros (setting [1]) was greater than 10000 nM each time. Further, the results for the Dmax on Helios (setting [1]) and on Ikaros (setting [1]) were 45% and 17%, respectively.
Regarding `CN(Cc1ccc([N+](=O)[O-])cc1)Cc1ccnc(-c2ccc3c(c2)CN(C2CCC(=O)NC2=O)C3=O)c1` (centres unmarked) [Example 151, 3-(5-(4-((methyl(4-nitrobenzyl)amino)methyl)pyridin-2-yl)-1-oxoisoindolin-2-yl)piperidine-2,6-dione], on Helios (setting [1]), the DC50 is greater than 10000 nM and the Dmax is 23%. In addition, on Ikaros (setting [1]), the DC50 is greater than 10000 nM and the Dmax stood at 1%.

These data come from patent US11548870B2, “Compounds useful as inhibitors of helios protein” (Bristol-Myers Squibb Company, priority 2019, dated 2023).
